Assays:
Type in all cases: in vivo
Details in all cases: wettable powder applied 3 days after transplanting, judged after 25 days
[1] = system: transplanted paddy-field rice; assay: Test Example 1: crop injury against transplanted paddy-field rice
Outline: (§1)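 Herbicidal effect and crop injury were rated 0 (0-10% inhibition) to 5 (91-100%) 25 days after treatment. Water-diluted wettable powder was applied to flooded greenhouse pots 3 days after transplanting 2.2-leaf rice. The pots held seeded weeds and sprouted Cyperus serotinus tubers.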

Cyperus serotinus = assay: Test Example 1: herbicidal effects, paddy-field pot test
Outline: as §1

[2] = system: barnyardgrass (Echinochloa oryzicola Vasing.); assay: as above
Outline: as §1

Scirpus joncoides = assay: as above
Outline: as §1

[3] = system: annual broad-leaved weeds (Lindernia spp., Rotala indica); assay: as above
Outline: as §1

SMILES	Crop injury against transplanted rice ([1]; chemical dosage 10 g/a)	Crop injury against transplanted rice ([1]; chemical dosage 20 g/a)	Herbicidal effects Cyperus serotinus (Cyperus serotinus; chemical dosage 10 g/a)	Herbicidal effects Cyperus serotinus (Cyperus serotinus; chemical dosage 20 g/a)	Herbicidal effects Barnyard grass ([2]; chemical dosage 10 g/a)	Herbicidal effects Barnyard grass ([2]; chemical dosage 20 g/a)	Herbicidal effects Scirpus joncoides (Scirpus joncoides; chemical dosage 10 g/a)	Herbicidal effects Scirpus joncoides (Scirpus joncoides; chemical dosage 20 g/a)	Herbicidal effects Broad leaf ([3]; chemical dosage 10 g/a)	Herbicidal effects Broad leaf ([3]; chemical dosage 20 g/a)	further results
CC(C)(C)c1ccccc1Oc1nnc(Cl)cc1O [Example 61]											Crop injury against transplanted rice ([1]; chemical dosage 12.5 g/a): 0 (Growth inhibition rate; 0 to 10%); Crop injury against transplanted rice ([1]; chemical dosage 25 g/a): 0 (Growth inhibition rate; 0 to 10%); Herbicidal effects Cyperus serotinus (Cyperus serotinus; chemical dosage 12.5 g/a): 5 (Growth inhibition rate; 91 to 100%); Herbicidal effects Cyperus serotinus (Cyperus serotinus; chemical dosage 25 g/a): 5 (Growth inhibition rate; 91 to 100%); Herbicidal effects Barnyard grass ([2]; chemical dosage 12.5 g/a): 1 (Growth inhibition rate; 11 to 30%); Herbicidal effects Barnyard grass ([2]; chemical dosage 25 g/a): 2 (Growth inhibition rate; 31 to 50%); Herbicidal effects Scirpus joncoides (Scirpus joncoides; chemical dosage 12.5 g/a): 5 (Growth inhibition rate; 91 to 100%); Herbicidal effects Scirpus joncoides (Scirpus joncoides; chemical dosage 25 g/a): 5 (Growth inhibition rate; 91 to 100%); Herbicidal effects Broad leaf ([3]; chemical dosage 12.5 g/a): 5 (Growth inhibition rate; 91 to 100%); Herbicidal effects Broad leaf ([3]; chemical dosage 25 g/a): 5 (Growth inhibition rate; 91 to 100%)
Oc1cc(Cl)nnc1Oc1cccc2c1CCCC2 [Example 179]	0 (Growth inhibition rate; 0 to 10%)	0 (Growth inhibition rate; 0 to 10%)	5 (Growth inhibition rate; 91 to 100%)	5 (Growth inhibition rate; 91 to 100%)	0 (Growth inhibition rate; 0 to 10%)	1 (Growth inhibition rate; 11 to 30%)	3 (Growth inhibition rate; 51 to 70%)	4 (Growth inhibition rate; 71 to 90%)	4 (Growth inhibition rate; 71 to 90%)	4 (Growth inhibition rate; 71 to 90%)	
Oc1cc(Cl)nnc1Oc1ccccc1OC(F)(F)F [Example 125]	0 (Growth inhibition rate; 0 to 10%)	0 (Growth inhibition rate; 0 to 10%)	4 (Growth inhibition rate; 71 to 90%)	5 (Growth inhibition rate; 91 to 100%)	1 (Growth inhibition rate; 11 to 30%)	2 (Growth inhibition rate; 31 to 50%)	3 (Growth inhibition rate; 51 to 70%)	4 (Growth inhibition rate; 71 to 90%)	5 (Growth inhibition rate; 91 to 100%)	5 (Growth inhibition rate; 91 to 100%)	
CCCc1ccccc1Oc1nnc(Cl)cc1O [Example 56]											Crop injury against transplanted rice ([1]; chemical dosage 12.5 g/a): 0 (Growth inhibition rate; 0 to 10%); Crop injury against transplanted rice ([1]; chemical dosage 25 g/a): 0 (Growth inhibition rate; 0 to 10%); Herbicidal effects Cyperus serotinus (Cyperus serotinus; chemical dosage 12.5 g/a): 4 (Growth inhibition rate; 71 to 90%); Herbicidal effects Cyperus serotinus (Cyperus serotinus; chemical dosage 25 g/a): 4 (Growth inhibition rate; 71 to 90%); Herbicidal effects Barnyard grass ([2]; chemical dosage 12.5 g/a): 0 (Growth inhibition rate; 0 to 10%); Herbicidal effects Barnyard grass ([2]; chemical dosage 25 g/a): 0 (Growth inhibition rate; 0 to 10%); Herbicidal effects Scirpus joncoides (Scirpus joncoides; chemical dosage 12.5 g/a): 2 (Growth inhibition rate; 31 to 50%); Herbicidal effects Scirpus joncoides (Scirpus joncoides; chemical dosage 25 g/a): 3 (Growth inhibition rate; 51 to 70%); Herbicidal effects Broad leaf ([3]; chemical dosage 12.5 g/a): 4 (Growth inhibition rate; 71 to 90%); Herbicidal effects Broad leaf ([3]; chemical dosage 25 g/a): 5 (Growth inhibition rate; 91 to 100%)
Oc1cc(Cl)nnc1Oc1cccc2c1OCC2 [Example 189]	3 (Growth inhibition rate; 51 to 70%)		5 (Growth inhibition rate; 91 to 100%)		3 (Growth inhibition rate; 51 to 70%)		5 (Growth inhibition rate; 91 to 100%)		5 (Growth inhibition rate; 91 to 100%)		Crop injury against transplanted rice ([1]; chemical dosage 5 g/a): 0 (Growth inhibition rate; 0 to 10%); Herbicidal effects Cyperus serotinus (Cyperus serotinus; chemical dosage 5 g/a): 5 (Growth inhibition rate; 91 to 100%); Herbicidal effects Barnyard grass ([2]; chemical dosage 5 g/a): 2 (Growth inhibition rate; 31 to 50%); Herbicidal effects Scirpus joncoides (Scirpus joncoides; chemical dosage 5 g/a): 4 (Growth inhibition rate; 71 to 90%); Herbicidal effects Broad leaf ([3]; chemical dosage 5 g/a): 5 (Growth inhibition rate; 91 to 100%)
Cc1coc2cccc(Oc3nnc(Cl)cc3O)c12 [Example 184]		0 (Growth inhibition rate; 0 to 10%)		5 (Growth inhibition rate; 91 to 100%)		0 (Growth inhibition rate; 0 to 10%)		4 (Growth inhibition rate; 71 to 90%)		5 (Growth inhibition rate; 91 to 100%)	
O=C(Oc1cc(Cl)nnc1Oc1ccccc1C1CC1)c1ccccc1 [Example 329]	0 (Growth inhibition rate; 0 to 10%)	0 (Growth inhibition rate; 0 to 10%)	5 (Growth inhibition rate; 91 to 100%)	5 (Growth inhibition rate; 91 to 100%)	2 (Growth inhibition rate; 31 to 50%)	4 (Growth inhibition rate; 71 to 90%)	5 (Growth inhibition rate; 91 to 100%)	5 (Growth inhibition rate; 91 to 100%)	5 (Growth inhibition rate; 91 to 100%)	5 (Growth inhibition rate; 91 to 100%)	
CC(=O)Oc1cc(Cl)nnc1Oc1ccccc1C1CC1 [Example 323]	0 (Growth inhibition rate; 0 to 10%)	0 (Growth inhibition rate; 0 to 10%)	5 (Growth inhibition rate; 91 to 100%)	5 (Growth inhibition rate; 91 to 100%)	3 (Growth inhibition rate; 51 to 70%)	4 (Growth inhibition rate; 71 to 90%)	5 (Growth inhibition rate; 91 to 100%)	5 (Growth inhibition rate; 91 to 100%)	5 (Growth inhibition rate; 91 to 100%)	5 (Growth inhibition rate; 91 to 100%)	
Cc1cc(C)c(Oc2nnc(Cl)cc2O)c(C2CC2)c1 [Example 318]	0 (Growth inhibition rate; 0 to 10%)	0 (Growth inhibition rate; 0 to 10%)	5 (Growth inhibition rate; 91 to 100%)	5 (Growth inhibition rate; 91 to 100%)	0 (Growth inhibition rate; 0 to 10%)	1 (Growth inhibition rate; 11 to 30%)	5 (Growth inhibition rate; 91 to 100%)	5 (Growth inhibition rate; 91 to 100%)	5 (Growth inhibition rate; 91 to 100%)	5 (Growth inhibition rate; 91 to 100%)	
C=CCc1ccccc1Oc1nnc(Cl)cc1OC [Comparative compound, 3-(2-allylphenoxy)-6-chloro-4-methoxypyridazine, reference compound]											Crop injury against transplanted rice ([1]; chemical dosage 25 g/a): 0 (Growth inhibition rate; 0 to 10%); Herbicidal effects Cyperus serotinus (Cyperus serotinus; chemical dosage 25 g/a): 0 (Growth inhibition rate; 0 to 10%); Herbicidal effects Barnyard grass ([2]; chemical dosage 25 g/a): 0 (Growth inhibition rate; 0 to 10%); Herbicidal effects Scirpus joncoides (Scirpus joncoides; chemical dosage 25 g/a): 0 (Growth inhibition rate; 0 to 10%); Herbicidal effects Broad leaf ([3]; chemical dosage 25 g/a): 1 (Growth inhibition rate; 11 to 30%)
Oc1cc(Cl)nnc1Oc1cccc2c1C1CC1C2 (centres unmarked) [Example 14]	0 (Growth inhibition rate; 0 to 10%)		5 (Growth inhibition rate; 91 to 100%)		0 (Growth inhibition rate; 0 to 10%)		4 (Growth inhibition rate; 71 to 90%)		5 (Growth inhibition rate; 91 to 100%)		
